B1: C-terminal domain: domain consisting of amino acids 169-252 of IGFBP-5 (SEQ ID NO: 1), stably expressed in 2774 cells (C/2774) (protein)
chain: QGPCRRHMEASLQELKASPRMVPRAVYLPNCDRKGFYKRKQCKPSRGRKRGICWCVDKYGMKLPGMEYVDGDFQCHTFDSSNVE

Columns and labels:
VEGF = assay: RT-PCR analysis of VEGF gene expression in 2774 ovarian cancer cell line; type: cell-based
Method: (§1) A plasmid (pSecTaq2/Hygro A, Invitrogen) (2 μg/dish (100 mm dish)) that expresses the C-terminal domain (SEQ ID NO: 1), L-domain (SEQ ID NO: 2) and N-terminal domain (SEQ ID NO: 3) of IGFBP-5 was transfected into the 2774 ovarian cancer cell line using Lipofectamine 2000 (Invitrogen). The transfection was performed according to the method provided by Invitrogen.
(§2) At 24 hours after transfection, viable colonies were collected in DMEM (+10% FBS+penicillin and hygromycin) containing hygromycin (500 μg/ml), and then positive colonies were selected by a Western blot method using Myc antibody.
(§3) The […] cell line was treated overnight with various concentrations or 60 μg/ml of the peptides synthesized in Example 4, after which the cell line was additionally treated with fresh peptides for 7 hours. The cell line was treated for a total of 24 hours. Then, the cells were lysed with Trizol (Invitrogen), and RNA was isolated from the cells. cDNA was synthesized from the isolated […] using oligo dT and superscriptase III (Invitrogen), and then subjected to RT-PCR.
(§4) However, the PCR reaction using TNF-a primers was performed for 35 cycles at an annealing temperature of 57° C.

HUVEC [1] = assay: Tube formation assay on Matrigel; type: cell-based, human; settings: 60 μg/ml peptide, 24 h pretreatment, 6 h on Matrigel; FIG. 6a
Method: In order to examine the influence of each domain peptide of IGFBP-5 on the tube formation of HUVEC cells, HUVEC cells were plated onto a 6-well plate at a density of 1×10^5 cells/well, and then treated with 60 μg/ml of each of the peptides for 24 hours.
Before a tube formation assay, growth factor-reduced Matrigel (BD Bioscience) diluted to 1:2 with PBS was added to a 24-well plate in an amount of 300 μl/well, and then solidified at 37° C. for 1 hour. The HUVEC cells treated with each of the peptides for 24 hours were trypsinized, suspended in 300 μl of EGM medium (diluted to 1:3 with EBM medium) and treated with 60 μg/ml of a fresh peptide, and then the cells were incubated on the prepared Matrigel for 6 hours.

IL-6 = assay: RT-PCR analysis of IL-6 gene expression in 2774 ovarian cancer cell line; type: cell-based
Method: as §1, §2, §3, §4

HUVEC [2] = assay: Migration (scratch) assay; type: cell-based, human; settings: 60 μg/ml peptide, 36 h pretreatment, overnight, FIG. 6b
Method: In order to examine the influence of each domain peptide of IGFBP-5 on the migration of HUVEC cells, HUVEC cells were seeded onto a 12-well plate at a density of 1×10^5 cells/well, and then treated with 60 μg/ml of each of the peptides for 36 hours. Specifically, the cells were treated with each of the peptides for 7 hours, and then treated overnight with a fresh peptide.
The plate was scratched with a 200-μl micropipette tip, and treated overnight with 60 μg/ml of a fresh peptide, after which the migration of the cells was observed. For this purpose, the cells were photographed under a microscope at 0 hour and the overnight time point. In addition, for a control group, cells were treated with PBS.

TNF-α = assay: RT-PCR analysis of TNF-alpha gene expression in 2774 ovarian cancer cell line; type: cell-based
Method: as §1, §2, §3, §4

2774-GFP cell line = assay: Ovarian cancer animal model, intraperitoneal 2774-GFP cells; type: in vivo, nude mouse; settings: 30 mg/kg intraperitoneally 8 times at intervals of 2-3 days, FIG. 7
Method: Each of 5-week-old nude mouse was intraperitoneally injected with 5×10^6 2774 cells that express GFP.
In this experiment, 8 mice were injected with the BP5-C peptide, and for a control group, 7 mice were injected with PBS.

[3] = test system: 2774 ovarian cancer cell line; assay: Subcutaneous tumor growth of 2774 cell lines expressing IGFBP-5 truncation mutants; type: in vivo, nude mouse; settings: nude mice injected subcutaneously with 2774 cells expressing the domain, compared to Vec/2774; FIGS. 2a, 2b
Method: A 5-week-old nude mouse subcutaneously injected with 1×10^6 cells that express the truncation mutant of IGFBP-5, and then the tumor volume of the mice was measured at intervals of 3-4 days. In this experiment, two mice were used for each of the cell lines, and each of the cell lines was injected into two points of each mouse. This experiment was repeated three times.

[4] = 2774 cells treated with 60 μg/ml of each peptide, FIG. 5A
[5] = 2774 cells treated with peptide at 30, 60 and 100 μg/ml, FIG. 3A
[6] = 2774 cell line stably expressing the domain, FIG. 1B

Molecule | expression of VEGF gene (VEGF; [4]) | tube formation of HUVEC (HUVEC [1]) | expression of IL-6 gene (IL-6; [4]) | migration of HUVEC (HUVEC [2]) | expression of TNF-α gene (TNF-α; [4]) | expression of VEGF gene (VEGF; [5]) | expression of IL-6 gene (IL-6; [5]) | tumor volume of collected tumors (2774-GFP cell line; compared to animals injected with PBS) | tumor growth (2774-GFP cell line; compared to control group (PBS)) | expression of TNF-α gene (TNF-α; [5]) | expression of VEGF gene (VEGF; [6]) | growth of cancer (tumor volume) [3] | expression of IL-6 gene (IL-6; [6]) | expression of TNF-a gene (TNF-α; [6])
BP2-C: C-terminal domain peptide of IGFBP-2 including IGF-1-binding domain, amino acids 228-245, KHGLYNLKQCKMSLNGQR (SEQ ID NO: 7) [reference compound] | no effect | no influence | no effect | did not inhibit | no effect | – | – | – | – | – | – | – | – | –
BP2-HBD: heparin-binding domain derived from IGFBP-2, amino acids 171-188, KHHLGLEEPKKLRPPPAR (SEQ ID NO: 6) [reference compound] | no effect | no influence | no effect | did not inhibit | no effect | – | – | – | – | – | – | – | – | –
BP5-C: amino acids 201-218 of IGFBP-5, RKGFYKRKQCKPSRGRKR (SEQ ID NO: 4) | inhibited | inhibited | inhibited | inhibited | inhibited | inhibited | inhibited | significantly reduced | significantly inhibited | inhibited | – | – | – | –
BP5-mut: IGFBP-5 201-218 with G203A and Q209A mutations, RKAFYKRKACKPSRGRKR (SEQ ID NO: 5) | inhibited | inhibited | inhibited | inhibited | inhibited | – | – | – | – | – | – | – | – | –
B1 | – | – | – | – | – | – | – | – | – | – | significantly inhibited | significantly inhibited | significantly inhibited | significantly inhibited

— US9072707B2, “Use of C-terminal domain of IGFBP-5 comprising heparin-binding domain as an angiogenesis inhibitor” (RESEARCH & BUSINESS FOUNDATION SUNGKYUNKWAN UNIVERSITY, priority 2012, dated 2015)
